# Source: PMC5531494, “Target specificity, in vivo pharmacokinetics, and efficacy of the putative STAT3 inhibitor LY5 in osteosarcoma, Ewing's sarcoma, and rhabdomyosarcoma” (PLoS ONE, 2017)
# Read-outs that look alike come from different tables or passages of the source.
# Key:
# ES-3 cells = experiment: Alamar Blue cell viability assay; format: cell-based; settings: Homo sapiens; ES-3, 96 hours
# Experimental: (§1) Sarcoma cell lines were seeded in 24-well plates in 1X RPMI medium containing 10% fetal bovine serum. Cells were then incubated with DMSO (control) or concentrations of LY5 ranging from 10 nM to 10 μM for 96 hrs. At the end of the incubation period, Alamar Blue (Invitrogen, Carlsbad, CA) was added to cells at one-tenth the volume of the cell culture medium and incubated for 3 hrs at 37° C in the dark. Fluorescence was then measured at an excitation/emissions wavelength of 570/590 nm and emission wavelength of 590 nm.
# (§2) Fig 2 Biologic activity of LY5 in sarcoma cell lines. Dose response curves for LY5: RMS cell lines (RH30, RD, JR-1), ES cell lines (ES-3, ES-6, ES-7, ES-8), and an OS cell line (OS-17) were treated with LY5 (concentrations ranging from 10 nM to 10 μM) for 96 hours. Cell viability was determined using Alamar Blue staining. IC50 values are indicated for each cell line. Analyses were performed in triplicate and data are plotted as means ± standard deviation.
# ES-6 cells = experiment: Alamar Blue cell viability assay; format: cell-based; settings: Homo sapiens; ES-6, 96 hours
# Experimental: as §1, §2
# ES-7 cells = experiment: Alamar Blue cell viability assay; format: cell-based; settings: Homo sapiens, ES7; ES-7, 96 hours
# Experimental: as §1, §2
# ES-8 cells = experiment: Alamar Blue cell viability assay; format: cell-based; settings: Homo sapiens, ES8; ES-8, 96 hours
# Experimental: as §1, §2
# JR-1 cells = experiment: Alamar Blue cell viability assay; format: cell-based; settings: Homo sapiens; JR-1, 96 hours
# Experimental: as §1, §2
# OS-17 cells = experiment: Alamar Blue cell viability assay; format: cell-based; settings: Homo sapiens; OS-17, 96 hours
# Experimental: as §1, §2
# RD cells = experiment: Alamar Blue cell viability assay; format: cell-based; settings: Homo sapiens, 96 hours
# Experimental: as §1, §2
# RH30 cells = experiment: Alamar Blue cell viability assay; format: cell-based; settings: Homo sapiens; RH30, 96 hours
# Experimental: as §1, §2
# [1] = PK in normal beagle dogs, IV and oral gavage; format: in vivo; settings: plasma; for bioavailability: dog, po, read-out: F (oral bioavailability)
# Experimental: LY5 was evaluated in two normal purpose-bred beagle dogs (female 8.8 kg; male 11.2 kg) receiving a single dose of 1mg/kg LY5 IV then orally by gavage 7 days later to establish the PK profile and assess the spectrum of clinical toxicities associated with LY5 administration. The oral dosing was repeated in the fed and fasted state. The starting dose was determined based on allometric scaling from the maximal tolerated dose studies performed in mice. Dogs were washed out for 30 days, and then given a dose of 25 mg in a capsule orally, followed by a 50 mg capsule dose 14 days later. Full PK sampling was performed over 24 hours following each dose of LY5. The dogs received LY5 and were used for the PK analysis but were not euthanized upon conclusion of the study.
# The liquid chromatography-mass spectrometry system utilized for these analyses consisted of a Dionex Ultimate 3000 RSLCnano High Performance Liquid Chromatography system and a Thermo Finnigan Quantum Ultras EMR mass spectrometer with an electrospray ionization source. Positive ionization mode was used for both LY5 and the internal standard, hesperetin. Plasma samples were collected and analyzed by the OSU James Comprehensive Cancer Center Pharmacoanalytical Shared Resource. Pharsight Phoenix WinNonlin software using non-compartmental analysis was used to generate PK parameters including maximum plasma concentration (Cmax), amount of time that drug is present at Cmax (Tmax), and total area under the curve (AUC). AUC all and AUC last were calculated by linear trapezoidal method of concentration-time curve up to the last measured point. AUC inf-obs was calculated by log-linear extrapolation of the terminal phase beyond the last collection time. Bioavailability (F) was calculated for IP and PO administration routes. Plasma stability and liver microsomal stability of LY5 were also assessed through this shared resource.
# OS-17-luc cells = experiment: Murine model of OS pulmonary metastasis, bioluminescent imaging; format: in vivo, mice; settings: 20 mg/kg LY5 daily oral gavage for 30 days, vs vehicle
# Experimental: The ability of LY5 to inhibit pulmonary metastases was evaluated using a murine model of OS pulmonary metastasis. 8-week-old C.B-17 scid -/- female mice (Envigo, Madison, WI) received IV inoculation with 10^6 OS-17-luc cells expressing a luciferase reporter gene. OS-17-luc cells were generated by infecting OS-17 wild type cells with lentivirus containing the firefly luciferase under a CMV promoter (Cellomics Technology, Hallethorpe, MD) and selected with 0.5 ug/mL puromycin (Thermo Fisher Scientific, Waltham, MA). Beginning 24 hrs after inoculation, mice received vehicle (n = 10) or 20 mg/kg LY5 once daily via oral gavage (n = 9, one mouse died within 24 hrs after cell inoculation). LY5 was prepared by diluting a 40 mg/mL solution/slurry with a 50% propylene glycol/1% Tween 20 in water vehicle immediately before administration. Mice were treated with LY5 for 30 days, and bioluminescent imaging (after IP luciferin administration) was performed to determine pulmonary metastatic disease load. To investigate the pharmacodynamics (PD) effects of LY5, pSTAT3 (p-Tyr705, ab76315, Abcam) and total STAT3 (ab119352, Abcam) were evaluated in pulmonary metastatic lesions using IHC in lung samples from mice euthanized 24 hrs after their last dose.
# (A-B) IHC staining of lung metastasis from mice treated with LY5. The metastatic tumor sections were stained with pSTAT3 or hematoxylin and eosin. […]
# [2] = female, Dog #2, PO fed, 1.28 mg/kg, dog vomited 10 min after dosing
# [3] = female, Dog #2, PO w/ fast, 0.9 mg/kg
# [4] = male, Dog #1, PO fed, 1.28 mg/kg
# [5] = male, Dog #1, PO w/ fast, 0.9 mg/kg
compound,measurement,setting,value
"NS(=O)(=O)c1cccc2c1C(=O)C=C(Nc1cccnc1)C2=O [LY5, 5,8-dioxo-6-(pyridin-3-ylamino)-5,8-dihydronaphthalene-1-sulfonamide]",IC50,ES-3 cells,3.42 µM
same,IC50,ES-6 cells,5.06 µM
same,IC50,ES-7 cells,2.15 µM
same,IC50,ES-8 cells,2 µM
same,IC50,JR-1 cells,0.271 µM
same,IC50,OS-17 cells,1.43 µM
same,IC50,RD cells,0.204 µM
same,IC50,RH30 cells,0.428 µM
same,bioavailability,"[1]; female, 0.9 mg/kg, Dog #2, PO w/ fast (fasted female dog)",44.3%
same,bioavailability,"[1]; female, 1 mg/kg, Dog #2, PO w/ fast (fasted female dog)",44%
same,bioavailability,"[1]; female, 1.28 mg/kg, Dog #2, PO fed, dog vomited 10 min after dosing",5%
same,AUC,"[1]; female, Dog #2, IV, 0.97 mg/kg",3920 nM·h
same,Cmax,"[1]; female, Dog #2, IV, 0.97 mg/kg",3.22 µM
same,AUC,[1]; [2],258 nM·h
same,Cmax,[1]; [2],0.0604 µM
same,AUC,[1]; [3],1610 nM·h
same,Cmax,[1]; [3],0.5 µM
same,bioavailability,"[1]; male, 0.9 mg/kg, Dog #1, PO w/ fast (fasted male dog)",51.6%
same,bioavailability,"[1]; male, 1 mg/kg, Dog #1, PO fed",14%
same,bioavailability,"[1]; male, 1 mg/kg, Dog #1, PO w/ fast (fasted male dog)",52%
same,bioavailability,"[1]; male, 1.28 mg/kg, Dog #1, PO fed",13.7%
same,AUC,"[1]; male, Dog #1, IV, 0.97 mg/kg",5100 nM·h
same,Cmax,"[1]; male, Dog #1, IV, 0.97 mg/kg",5.59 µM
same,AUC,[1]; [4],924 nM·h
same,Cmax,[1]; [4],0.206 µM
same,AUC,[1]; [5],2440 nM·h
same,Cmax,[1]; [5],1.28 µM
same,development of pulmonary metastatic lesions (luciferase expression),OS-17-luc cells,no difference
